This is an account of results in patent US20230080270A1, “NANOPARTICLES ENCAPSULATING SMALL MOLECULES” (ETH ZURICH, priority 2020, published 2023).

The conditions of data set [1]: cited from earlier work.
Data set [2] concerns HeLa cells. The data set can be described thus: Flow cytometry of cellular uptake in HeLa cells. The class given is cell-based, human. The conditions noted are these: 500 nM Nile Red, population gating based on the PBS control. As to the method: (§1) Cell culture. HeLa cells were maintained in Dulbecco's Modified Eagle Medium (high glucose) supplemented with 10% fetal bovine serum (FBS), 2 mM L-glutamine, 2 mM GlutaMAX and 1 μg/mL gentamicin. Cells were cultured in 5% CO2 at 37° C. and typically split in a 1:4 ratio every 3 days. Only passage numbers between 7-20 were used for all experiments.
Flow cytometry. HeLa cells were seeded at a density of 30,000 cells per well in a 24-well plate in 500 μL of culture medium and allowed to recover at 37° C. and 5% CO2 for 24 hours to reach 60-80% confluency. Both OP protein and surfactant solutions were sterilized by filtration through a 0.22 μm membrane, and stocks were prepared in sterile PBS. Nile Red solution (50 μM) in 1:1 EtOH:H2O was used without sterilization. OP capsid-micelle complexes were prepared as described above. For each well 20 μL of sample in PBS was added to 200 μL of culture media to give the final concentration of 200 nM. Cells were incubated for 16-20 h in 5% CO2 at 37° C. before washing with PBS and trypsinization (0.05% Trypsin-EDTA (Thermo Fisher Scientific, USA), 4 minutes at 37° C.). Cells were collected in cold culture medium and washed twice with cold PBS before resuspension in flow cytometry buffer (PBS with 5% FBS).

The test system of data set [3] is HeLa cells. Nature of the data set: Cell viability assay (WST-8-based Cell Counting Kit-8). The arrangement: species or system human. The conditions noted are these: 2.5 μM lapatinib, 18 hour incubation. Here is the method:
as §1
Cell viability assay. Cytotoxicity was assessed using the WST-8-based Cell Counting Kit-8 from Sigma according to the manufacturer's instructions. HeLa cells were seeded at a density of 5,000 cells per well in a 96-well plate in 100 μL of culture medium and allowed to recover at 37° C. and 5% CO2 for 24 hours. Protein, surfactant and drug samples were prepared by serial dilution in sterile PBS. As a negative control 10 μL of 10% Triton X-100 in PBS were used per well. The positive control was just PBS. […] The plate was then incubated for 2-4 hours at 37° C. and 5% CO2 before measuring absorbance at 450 nm. The absorbance of CKK-8 in culture media, without cells, was used for background subtraction and samples were normalized to untreated cells to provide the values shown in FIG. 4e,f. Samples were measured in sextuplicate with biological replicates of different protein batches.

For data set [4] the following is noted: in PBS buffer; cited from earlier work.
A short description of data set [5]: Effective concentration / volumetric capacity calculations. The conditions noted are these: OP cavity ~256 nm^3; SDS micelle radius 17.5 Å, aggregation number 64. From the text:
Effective concentration calculations. The volume of the OP lumenal cavity (255,528 A) was estimated as a sphere with a radius of 39.4 A. This radius determined by averaging the distances between lumenally exposed residues from the reported crystal structure (Edwardson et al., 2018, op. cit.), using the UCSF Chimera software (Pettersen, E. F. et al. UCSF Chimera—a visualization system for exploratory research and analysis. J. Comput. Chem. 25, 1605-1612 (2004)). The effective concentration of SDS was simply estimated as the number of moles SDS per lumenal cavity volume. The expected number of SDS molecules was estimated by first determining the volume occupied by an individual SDS molecule in a micelle, from the reported average values of SDS micelle radius (17.5 Å) and aggregation number (n=64). Division of the OP cavity volume by the average volume of a single SDS molecule packed into micellar aggregates gives an estimated value of 729 molecules per OP cage, which is within error of the volume estimations and experimental results, which approximate 800 molecules.

A short description of data set [6]: Nile Red fluorescence titration (surfactant content and cargo capacity). In kind it is physicochemical. Conditions: two equivalents of Nile Red, increasing SDS content. As to the method: Nile Red fluorescence. For a typical fluorimetry experiment, 800 μL samples in PBS buffer were used. For the surfactant loading kinetics the ionic strength was adjusted by dissolving appropriate amounts of NaCl in PBS buffer. Stock solutions of Nile Red in acetone:water (1:1 v/v), or DMSO at concentrations of 50-500 μM were used. The excitation wavelength was set to 535 nm for all experiments.
This number fits with a value of —730 calculated from the volumetric capacity of the OP cavity (˜256 nm^3) and the average volume occupied by an SDS molecule in a micelle (Methods section).
As cargo-carrying is an important characteristic of the protein-micelle complex, the inventors also used fluorescence titration to determine the number of Nile Red molecules that could be accommodated per cage. Single equivalents of Nile Red were added stepwise to a solution of OP:SDS complexes and the fluorescence spectra measured for each addition (FIG. 3d). Between 1-5 molecules of Nile Red per cage, a logarithmic increase in fluorescence emission is observed with each equivalent. From 5-20 molecules of Nile Red a steady decrease in fluorescence is observed, and above 20 a steady increase in fluorescence is observed. We attribute these three distinct stages to: i) Nile Red encapsulation, ii) self-quenching and iii) excess free dye. […]

Data set [7] is described as follows: Native agarose gel electrophoresis of OP with increasing SDS equivalents. In kind it is physicochemical. Conditions: up to 2000 SDS molecules per cage. From the text:
Native agarose gel electrophoresis.
Cage-templated micelle formation. Sodium dodecyl sulfate (SDS) was chosen as the anionic surfactant (FIG. 2a), due to its aqueous solubility and the potential for favourable hydrogen bond formation between the sulfate headgroup and the many arginine residues on the interior surface of the OP capsid. As SDS is typically used as a protein denaturant, the inventors were curious if charge and shape complementarity of the OP cage could be leveraged to drive formation of a scaffolded micelle, rather than allowing hydrophobic interactions with the protein core to dominate, a pathway that leads to disruption of protein structure. As such, OP was subject to increasing molar equivalents of SDS, up to 2000 molecules per cage, and analyzed by native gel electrophoresis (FIG. 2b).

Where “and” joins values, the source holds several entries; their conditions need not be identical. Equal values may be shown once.

On to `CCN(CC)c1ccc2nc3c4ccccc4c(=O)cc-3oc2c1` [Nile Red], for which the “solubility limit in organic solvents” value in data set [1] was less than 5 mM. In the data set on HeLa cells [2], the “fraction of cells Nile Red positive” value amounted to 58%.
Take `CS(=O)(=O)CCNCc1ccc(-c2ccc3ncnc(Nc4ccc(OCc5cccc(F)c5)c(Cl)c4)c3c2)o1` [lapatinib]: the “effect on cell viability” value in the data set with HeLa cells [3] was “negligible effect”.
Turning to `CCCCCCCCCCCCOS(=O)(=O)[O-].[Na+]` [SDS, Sodium dodecyl sulfate], the critical micelle concentration in data set [4] was 4 to 5 mM.

B1: OP: 24-mer octahedral porous protein cage with positively charged interior, polypeptide SEQ ID NO: 2 (protein)
chain: MSQAIGILELRSIAAGMELGDAMLKSANVDLLVSKTISRGKFLLMLGGDIGAIQQAIETGTSQAGRLLVDSLVLANIHPSVLPAISGLNSVDKRQAVGIVETRSVAACISAADRAVKGSNVTLVRVHMARGIGGKCYMVVAGDVSDVALAVTVASSSAGAYGRLVYASLIPRPHEAMWRQMVEGLEHHHHHH
modifications: 24-mer cage assembly
B1: the “SDS molecules per OP cage calculated from cavity volume and volume of an SDS molecule in a micelle” value in data set [5] is 729 molecules per OP cage and 730 molecules per OP cage. For the same molecule, the “surfactant molecules per cage at plateau of Nile Red fluorescence” value in data set [6] is on record as approximately 800 molecules per cage. Besides, the “SDS equivalents per protein cage up to which no change to quaternary structure” value in data set [7] is reported as “approximately 800 equivalents of SDS per protein cage”.
